Inhibition and IC50 data for 27 compounds are collected here from paper PMC9307114, “Discovery and SAR analysis of phenylbenzo[d][1,3]dioxole-based proprotein convertase subtilisin/kexin type 9 inhibitors” (Journal of Enzyme Inhibition and Medicinal Chemistry, 2022).

One assay has as its target PCSK9/LDLR PPI (Homo sapiens, UniProt Q8NBP7). As to the kind of experiment: PCSK9-LDLR TR-FRET assay (PCSK9/LDLR PPI inhibitory screening). The class given is binding. As to conditions: for inhibition at 10 µM: mean of three experiments, read-out: PCSK9 percentage inhibitory rate. On the procedure: The PCSK9/LDLR time-resolved fluorescence resonance energy transfer (TR-FRET) assay was performed to evaluate the activity of synthesised compounds in inhibition of PCSK9-LDLR binding. The A series compounds were firstly synthesised for the PCSK9/LDLR PPI inhibitory test. […] Therefore, a group of A12 derivatives (B series) were synthesised with 4-chlorobenzyl substituted in the amino group and various substitutions introduced to the carboxylic group. […] To confirm whether the 4-chloromethyl group is essential for the PPI inhibitory activity, a new series of compounds (C series) were synthesised with the 4-chloromethyl group replaced by 4-methoxymethyl moiety. The inhibitory activity was observed, most likely resulting from the 4-methoxymethyl substitution (Table 3).
The compounds were dissolved in 100% DMSO; then 2 µL of the dilution was added to a 20 µL of reaction to keep […] in all of reactions. The binding reaction was conducted at room temperature. The reaction mixture in assay buffer contains PCSK9, the indicated amount of the inhibitor, ligand LDLR, and the reaction dyes. The reaction mixture was incubated for 120 min before detection of the TR-FRET signal. Fluorescence signals for both the donor and acceptor dyes were measured using a Tecan Infinite M1000 plate reader. TR-FRET was recorded as the ratio of the fluorescence of the acceptor and the donor dyes (acceptor/donor). The TR-FRET data were analysed using Graphpad Prism software.
For orientation: Time-resolved FRET reads energy transfer from a long-lived donor to a nearby acceptor.

A further assay has as its system HepG2 cells. As to the kind of experiment: MTT assay on HepG2 cells. The format is cell-based. As to conditions: Homo sapiens, mean of three experiments, read-out: HepG2 percentage inhibitory rate.

Chain of PCSK9/LDLR PPI (Q8NBP7 153-692): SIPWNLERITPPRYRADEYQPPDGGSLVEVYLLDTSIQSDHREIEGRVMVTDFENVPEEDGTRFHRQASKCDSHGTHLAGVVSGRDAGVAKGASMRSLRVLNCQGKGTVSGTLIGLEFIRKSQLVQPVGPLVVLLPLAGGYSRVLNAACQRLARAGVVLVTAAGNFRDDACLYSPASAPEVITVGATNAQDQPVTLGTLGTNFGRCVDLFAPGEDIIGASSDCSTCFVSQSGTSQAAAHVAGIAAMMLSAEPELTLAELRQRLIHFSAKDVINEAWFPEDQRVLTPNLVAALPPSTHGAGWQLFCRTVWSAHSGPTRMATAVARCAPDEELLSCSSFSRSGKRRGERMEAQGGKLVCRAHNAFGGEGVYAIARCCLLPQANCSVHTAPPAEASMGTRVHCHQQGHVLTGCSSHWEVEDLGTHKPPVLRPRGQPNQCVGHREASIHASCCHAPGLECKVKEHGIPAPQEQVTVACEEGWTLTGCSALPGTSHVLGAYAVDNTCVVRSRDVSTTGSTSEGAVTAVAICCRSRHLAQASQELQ
Chain of PCSK9/LDLR PPI (Q8NBP7 31-152 partner limits assumed): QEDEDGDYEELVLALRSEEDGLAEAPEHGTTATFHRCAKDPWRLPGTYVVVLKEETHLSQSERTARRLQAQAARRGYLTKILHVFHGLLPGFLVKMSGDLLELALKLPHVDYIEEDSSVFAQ

On to `COc1cc(NC(=O)c2ccc(-c3cc4c(cc3NC(=O)c3ccc(F)cc3)OCO4)cc2)cc(OC)c1OC` [A1, 4-Fluoro-N-(6-(4-((3,4,5-trimethoxyphenyl)carbamoyl)phenyl)benzo[d][1,3]dioxol-5-yl)benzamide], for which the inhibition at 10 µM on PCSK9/LDLR PPI amounted to 27.2 ± 1.85%; in the assay on HepG2 cells, 12.5 ± 1.06%.
With `COc1cc(NC(=O)c2ccc(-c3cc4c(cc3NC(=O)c3ccc(C(F)(F)F)cc3)OCO4)cc2)cc(OC)c1OC` [A2, 4-(Trifluoromethyl)-N-(6-(4-((3,4,5-trimethoxyphenyl)carbamoyl)phenyl)benzo[d][1,3]dioxol-5-yl)benzamide], the results for the inhibition at 10 µM on PCSK9/LDLR PPI and with HepG2 cells were 23.1 ± 2.17% and 16.4 ± 1.55%, respectively.
Consider `COc1cc(NC(=O)c2ccc(-c3cc4c(cc3NC(=O)c3ccccc3)OCO4)cc2)cc(OC)c1OC` [A3, 4-(6-Benzamidobenzo[d][1,3]dioxol-5-yl)-N-(3,4,5-trimethoxyphenyl)benzamide], for which the inhibition at 10 µM came to 5.06 ± 0.09% on PCSK9/LDLR PPI and 8.78 ± 0.37% with HepG2 cells.
The corresponding values for `COc1cc(NC(=O)c2ccc(-c3cc4c(cc3NC(=O)c3ccccc3C(F)(F)F)OCO4)cc2)cc(OC)c1OC` [A4, 2-(Trifluoromethyl)-N-(6-(4-((3,4,5-trimethoxyphenyl)carbamoyl)phenyl)benzo[d][1,3]dioxol-5-yl)benzamide] are 5.28 ± 0.4% and 7.93 ± 1.04%.
In the same order, the values of `COc1cc(NC(=O)c2ccc(-c3cc4c(cc3NC(=O)c3ccccc3F)OCO4)cc2)cc(OC)c1OC` [A5, 2-Fluoro-N-(6-(4-((3,4,5-trimethoxyphenyl)carbamoyl)phenyl)benzo[d][1,3]dioxol-5-yl)benzamide] are 4.77 ± 0.31% and 5.96 ± 0.66%.
Turning to `COc1ccc(C(=O)Nc2cc3c(cc2-c2ccc(C(=O)Nc4cc(OC)c(OC)c(OC)c4)cc2)OCO3)cc1` [A6, 4-Methoxy-N-(6-(4-((3,4,5-trimethoxyphenyl)carbamoyl)phenyl)benzo[d][1,3]dioxol-5-yl)benzamide], the inhibition at 10 µM at PCSK9/LDLR PPI amounted to 5.92 ± 0.52%; with HepG2 cells it was 5.9 ± 0.42%.
For `COc1cc(NC(=O)c2ccc(-c3cc4c(cc3NC(=O)c3ccccc3Cl)OCO4)cc2)cc(OC)c1OC` [A7, 2-Chloro-N-(6-(4-((3,4,5-trimethoxyphenyl)carbamoyl)phenyl)benzo[d][1,3]dioxol-5-yl)benzamide], the inhibition at 10 µM on PCSK9/LDLR PPI was 5.16 ± 0.31%; with HepG2 cells it was 12.4 ± 1.07%.
In the same order, the values of `COc1cc(NC(=O)c2ccc(-c3cc4c(cc3NC(=O)c3cccc(Br)c3)OCO4)cc2)cc(OC)c1OC` [A8, 3-Bromo-N-(6-(4-((3,4,5-trimethoxyphenyl)carbamoyl)phenyl)benzo[d][1,3]dioxol-5-yl)benzamide] are 5.88 ± 0.12% and 3.66 ± 0.24%.
In the same order, the values of `COc1cc(NC(=O)c2ccc(-c3cc4c(cc3NC(=O)c3cccc(F)c3)OCO4)cc2)cc(OC)c1OC` [A9, 3-Fluoro-N-(6-(4-((3,4,5-trimethoxyphenyl)carbamoyl)phenyl)benzo[d][1,3]dioxol-5-yl)benzamide] are 22.5 ± 1.36% and 11.7 ± 0.88%.
In the same order, the values of `COc1ccccc1C(=O)Nc1cc2c(cc1-c1ccc(C(=O)Nc3cc(OC)c(OC)c(OC)c3)cc1)OCO2` [A10, 2-Methoxy-N-(6-(4-((3,4,5-trimethoxyphenyl)carbamoyl)phenyl)benzo[d][1,3]dioxol-5-yl)benzamide] are 3.05 ± 0.05% and 4.27 ± 0.16%.
In the case of `COc1cc(NC(=O)c2ccc(-c3cc4c(cc3NC(=O)c3cccc(C(F)(F)F)c3)OCO4)cc2)cc(OC)c1OC` [A11, 3-(Trifluoromethyl)-N-(6-(4-((3,4,5-trimethoxyphenyl)carbamoyl)phenyl)benzo[d][1,3]dioxol-5-yl)benzamide], the inhibition at 10 µM at PCSK9/LDLR PPI came to 35.2 ± 3.15%; with HepG2 cells, 7.97 ± 0.08%.
In the same order, the values of `COc1cc(NC(=O)c2ccc(-c3cc4c(cc3NC(=O)c3ccccc3C)OCO4)cc2)cc(OC)c1OC` [A13, 2-Methyl-N-(6-(4-((3,4,5-trimethoxyphenyl)carbamoyl)phenyl)benzo[d][1,3]dioxol-5-yl)benzamide] are 7.65 ± 0.01% and 5.89 ± 0.27%.
In the same order, the values of `CCc1ccc(C(=O)Nc2cc3c(cc2-c2ccc(C(=O)Nc4cc(OC)c(OC)c(OC)c4)cc2)OCO3)cc1` [A14, 4-Ethyl-N-(6-(4-((3,4,5-trimethoxyphenyl)carbamoyl)phenyl)benzo[d][1,3]dioxol-5-yl)benzamide] are 7.83 ± 0.26% and 5.21 ± 0.16%.
In the same order, the values of `COc1cc(NC(=O)c2ccc(-c3cc4c(cc3NC(=O)c3cc(F)cc(F)c3)OCO4)cc2)cc(OC)c1OC` [A15, 3,5-Difluoro-N-(6-(4-((3,4,5-trimethoxyphenyl)carbamoyl)phenyl)benzo[d][1,3]dioxol-5-yl)benzamide] are 4.76 ± 0.37% and 4.63 ± 0.22%.
With `COc1cc(NC(=O)c2ccc(-c3cc4c(cc3NC(=O)c3cc(F)ccc3F)OCO4)cc2)cc(OC)c1OC` [A16, 2,5-Difluoro-N-(6-(4-((3,4,5-trimethoxyphenyl)carbamoyl)phenyl)benzo[d][1,3]dioxol-5-yl)benzamide], the results for the inhibition at 10 µM at PCSK9/LDLR PPI and with HepG2 cells were 4.22 ± 0.25% and 3.33 ± 0.23%, respectively.
The corresponding values for `COc1cc(NC(=O)c2ccc(-c3cc4c(cc3NC(=O)c3ccc(C#N)cc3)OCO4)cc2)cc(OC)c1OC` [A17, 4-Cyano-N-(6-(4-((3,4,5-trimethoxyphenyl)carbamoyl)phenyl)benzo[d][1,3]dioxol-5-yl)benzamide] are 7.91 ± 0.71% and 3.84 ± 0.11%.
Regarding `O=C(Nc1ccc(Br)cc1)c1ccc(-c2cc3c(cc2NC(=O)c2ccc(CCl)cc2)OCO3)cc1` [B2, N-(4-bromophenyl)-4-(6-(4-(chloromethyl)benzamido)benzo[d][1,3]dioxol-5-yl)benzamide], the inhibition at 10 µM on PCSK9/LDLR PPI was 25.5 ± 2.22%; with HepG2 cells, 15.6 ± 1.24%.
The corresponding values for `COc1ccc(NC(=O)c2ccc(-c3cc4c(cc3NC(=O)c3ccc(CCl)cc3)OCO4)cc2)cc1` [B5, 4-(Chloromethyl)-N-(6-(4-((4-methoxyphenyl)carbamoyl)phenyl)benzo[d][1,3]dioxol-5-yl)benzamide] are 6.18 ± 0.08% and 7.22 ± 0.15%.
For `CCOc1ccc(NC(=O)c2ccc(-c3cc4c(cc3NC(=O)c3ccc(CCl)cc3)OCO4)cc2)cc1` [B6, 4-(Chloromethyl)-N-(6-(4-((4-ethoxyphenyl)carbamoyl)phenyl)benzo[d][1,3]dioxol-5-yl)benzamide], the inhibition at 10 µM at PCSK9/LDLR PPI was determined as 6.97 ± 0.43%; with HepG2 cells, 7.04 ± 0.27%.
In the same order, the values of `COc1ccc(NC(=O)c2ccc(-c3cc4c(cc3NC(=O)c3ccc(CCl)cc3)OCO4)cc2)cc1OC` [B7, 4-(Chloromethyl)-N-(6-(4-((3,4-dimethoxyphenyl)carbamoyl)phenyl)benzo[d][1,3]dioxol-5-yl)benzamide] are 16.3 ± 0.62% and 5.45 ± 0.39%.
With `Cc1ccc(NC(=O)c2ccc(-c3cc4c(cc3NC(=O)c3ccc(CCl)cc3)OCO4)cc2)cc1` [B8, 4-(Chloromethyl)-N-(6-(4-(p-tolylcarbamoyl)phenyl)benzo[d][1,3]dioxol-5-yl)benzamide], the inhibition at 10 µM was determined as 3.15 ± 0.02% on PCSK9/LDLR PPI and 3.35 ± 0.16% in the assay on HepG2 cells.
As to `CCc1ccc(NC(=O)c2ccc(-c3cc4c(cc3NC(=O)c3ccc(CCl)cc3)OCO4)cc2)cc1` [B9, 4-(Chloromethyl)-N-(6-(4-((4-ethylphenyl)carbamoyl)phenyl)benzo[d][1,3]dioxol-5-yl)benzamide], the values for the inhibition at 10 µM at PCSK9/LDLR PPI and with HepG2 cells were 3.36 ± 0.23% and 6.36 ± 0.42%, respectively.
In the same order, the values of `CCCCCc1ccc(NC(=O)c2ccc(-c3cc4c(cc3NC(=O)c3ccc(CCl)cc3)OCO4)cc2)cc1` [B10, 4-(Chloromethyl)-N-(6-(4-((4-pentylphenyl)carbamoyl)phenyl)benzo[d][1,3]dioxol-5-yl)benzamide] are 5.87 ± 0.01% and 2.4 ± 0.19%.
In the same order, the values of `O=C(Nc1ccc(-c2ccccc2)cc1)c1ccc(-c2cc3c(cc2NC(=O)c2ccc(CCl)cc2)OCO3)cc1` [B11, N-([1,1′-biphenyl]-4-yl)-4-(6-(4-(chloromethyl)benzamido)benzo[d][1,3]dioxol-5-yl)benzamide] are 6.92 ± 0.53% and 3.26 ± 0.22%.
Consider `O=C(Nc1ccc2c(c1)OCCO2)c1ccc(-c2cc3c(cc2NC(=O)c2ccc(CCl)cc2)OCO3)cc1` [B12, 4-(Chloromethyl)-N-(6-(4-((2,3-dihydrobenzo[b][1,4]dioxin-6-yl)carbamoyl)phenyl)benzo[d][1,3]dioxol-5-yl)benzamide], for which the inhibition at 10 µM was determined as 5.16 ± 0.2% on PCSK9/LDLR PPI and 5.76 ± 0.24% with HepG2 cells.
In the same order, the values of `O=C(Nc1cc2c(cc1-c1ccc(C(=O)N3CCN(c4ccccc4)CC3)cc1)OCO2)c1ccc(CCl)cc1` [B13, 4-(Chloromethyl)-N-(6-(4-(4-phenylpiperazine-1-carbonyl)phenyl)benzo[d][1,3]dioxol-5-yl)benzamide] are 5.64 ± 0.04% and 3.21 ± 0.26%.
On to `O=C(Nc1cccc(-c2nc3ccccc3o2)c1)c1ccc(NC(=O)c2cc3ccccc3o2)cc1` [SBC-115337, reference compound], for which the IC50 on PCSK9/LDLR PPI (dose-dependent IC50 plot, Figure 3, read-out: PCSK9 IC50 (inhibition of PCSK9/LDLR PPI)) was determined as 12.9 µM.
